The values below come from patent US11261209B2, “Enhanced coupling of stereodefined oxazaphospholidine phosphoramidite monomers to nucleoside or oligonucleotide” (Roche Innovation Center Copenhagen A/S, priority 2016, dated 2022).

Series [1] in a line: Solubility of oxazaphospholidine phosphoramidite monomers in solvent, visual examination. Format: physicochemical. Particulars: for Soluble after: 0 h MeCN + 2.5% pyridine / Soluble after: 0 h MeCN / Soluble after: 24 h MeCN + 2.5% pyridine / Soluble after: 24 h MeCN: 0.013 mmol amidite in 0.13 mL, room temperature; for Solubility after 24 hours in MeCN with addition of pyridine: MeCN with addition of pyridine (2.5%). How it is done:
To a 1.5 mL vial was added 0.013 mmol of amidite after which the solid material was dissolved in 0.13 mL of solvent. Hereafter, the vial was capped, vortexed, and finally left at room temperature for 24 hours. Then, the dissolved material was visually examined regarding the solubility (FIG. 1). If the solution appeared cloudy or otherwise non-homogenous the solubility was set to “no”. If the solution appeared completely homogenous the solubility was set to “yes” (examination repeated after 24 hours).
Solubility of the following monomers was determined as per example 7.

Series [2] is described as follows: Stability of amidite in solution by HPLC-MS (UV 254 nm, normalised to 0 hours). Format: physicochemical. How it is done:
Stability Determination Method: To complete the analysis the stability of the amidite was investigated using an Agilent 1100 series HPLC-MS with a gradient from 80% A (1% NH4OH in H2O) to 100% B (20% A in MeCN) and a Waters Xterra MS C18 2.1×100 mm column. The mass and UV peak of the mother compound was identified at 0 hours and at 24 hours. Hereafter, the relative stability compared to other by-products was reported by integrating the UV chromatogram (254 nm) and normalizing the area to the chromatogram recorded at 0 hours (FIG. 2).
To a 1.5 mL vial was added 0.013 mmol of amidite after which the solid material was dissolved in 0.13 mL of solvent (with and without Et3N, approximately 5-10 eq). Hereafter, the vial was capped, vortexed, and finally left at room temperature for 24 hours. To investigate the stability of the amidite an Agilent 1100 series HPLC-MS with a gradient from 80% A (1% NH4OH in H2O) to 100% B (20% A in MeCN) and a Waters Xterra MS C18 2.1×100 mm column was used. The mass and UV peak of the mother compound was identified at 0 hours and at 24 hours. Hereafter, the relative stability compared to other by-products was reported. This was again repeated after 48 hours.

Entries after “also recorded” stand apart in the source; their conditions may differ.

As to `COc1ccc(C(OC[C@H]2O[C@@H](n3cnc4c(NC(=O)c5ccccc5)ncnc43)C[C@@H]2O[P@]2O[C@@H](c3ccccc3)[C@H]3CCCN32)(c2ccccc2)c2ccc(OC)cc2)cc1` [D-DNA A], in series [1], the “Soluble after: 0 h MeCN + 2.5% pyridine” value was “Yes”, the “Soluble after: 24 h MeCN + 2.5% pyridine” value was “Yes” and the “Solubility after 24 hours in MeCN with addition of pyridine” value (“Solubility after 24 hours … of pyridine” below) is listed as “solubility of the monomer is preserved”. Besides, in series [1] (MeCN), the “Soluble after: 0 h MeCN” value is “Yes”, the “Soluble after: 24 h MeCN” value was “No” and the “Solubility after 24 hours in MeCN” value is reported as “not soluble”.

Turning to `COc1ccc(C(OC[C@H]2O[C@@H](n3ccc(NC(C)=O)nc3=O)C[C@@H]2O[P@]2O[C@@H](c3ccccc3)[C@H]3CCCN32)(c2ccccc2)c2ccc(OC)cc2)cc1` [D-DNA C], in series [1], the “Soluble after: 0 h MeCN + 2.5% pyridine” value is “Yes” and the “Soluble after: 24 h MeCN + 2.5% pyridine” value was “Yes”. In series [1] (MeCN), the “Soluble after: 0 h MeCN” value is listed as “Yes” and the “Soluble after: 24 h MeCN” value is given as “No”.

For `COc1ccc(C(OC[C@H]2O[C@@H](n3cnc4c(=O)[nH]c(/N=C/N(C)C)nc43)C[C@@H]2O[P@]2O[C@@H](c3ccccc3)[C@H]3CCCN32)(c2ccccc2)c2ccc(OC)cc2)cc1` [D-DNA G], in series [1], the “Soluble after: 0 h MeCN + 2.5% pyridine” value is “Yes” and the “Soluble after: 24 h MeCN + 2.5% pyridine” value was “Yes”. In series [1] (MeCN), the “Soluble after: 0 h MeCN” value is on record as “Yes” and the “Soluble after: 24 h MeCN” value is reported as “No”.

Take `COc1ccc(C(OC[C@H]2O[C@@H](n3cc(C)c(=O)[nH]c3=O)C[C@@H]2O[P@]2O[C@@H](c3ccccc3)[C@H]3CCCN32)(c2ccccc2)c2ccc(OC)cc2)cc1` [D-DNA T]: in series [1], the “Soluble after: 0 h MeCN + 2.5% pyridine” value is reported as “Yes” and the “Soluble after: 24 h MeCN + 2.5% pyridine” value is on record as “Yes”. In series [1] (MeCN), the “Soluble after: 0 h MeCN” value is “Yes” and the “Soluble after: 24 h MeCN” value is “No”.

As for `COc1ccc(C(OCC23COC(C(n4cnc5c(NC(=O)c6ccccc6)ncnc54)O2)C3OP2OC(c3ccccc3)C3CCCN32)(c2ccccc2)c2ccc(OC)cc2)cc1` [D-LNA A], in series [1], the “Soluble after: 0 h MeCN + 2.5% pyridine” value is “Yes”, the “Soluble after: 24 h MeCN + 2.5% pyridine” value is on record as “Yes” and the “Solubility after 24 hours … of pyridine” value is “solubility of the monomer is preserved”. Besides, in series [1] (MeCN), the “Soluble after: 0 h MeCN” value is “Yes”, the “Soluble after: 24 h MeCN” value is “No” and the “Solubility after 24 hours in MeCN” value is “not soluble”.

Take `COc1ccc(C(OCC23COC(C(n4cnc5c(=O)[nH]c(N=CN(C)C)nc54)O2)C3OP2OC(c3ccccc3)C3CCCN32)(c2ccccc2)c2ccc(OC)cc2)cc1` [D-LNA G]: in series [1], the “Soluble after: 0 h MeCN + 2.5% pyridine” value is “Yes” and the “Soluble after: 24 h MeCN + 2.5% pyridine” value is reported as “Yes”. In addition, in series [1] (MeCN), the “Soluble after: 0 h MeCN” value is “Yes” and the “Soluble after: 24 h MeCN” value is “Yes”.

In the case of `COc1ccc(C(OCC23COC(C(n4cc(C)c(=O)[nH]c4=O)O2)C3OP2OC(c3ccccc3)C3CCCN32)(c2ccccc2)c2ccc(OC)cc2)cc1` [D-LNA T], in series [1], the “Soluble after: 0 h MeCN + 2.5% pyridine” value is “Yes” and the “Soluble after: 24 h MeCN + 2.5% pyridine” value was “Yes”. Besides, in series [1] (MeCN), the “Soluble after: 0 h MeCN” value is “Yes” and the “Soluble after: 24 h MeCN” value is recorded as “Yes”.

For the compound `COc1ccc(C(OC[C@H]2O[C@@H](n3cnc4c(NC(=O)c5ccccc5)ncnc43)C[C@@H]2O[P@@]2O[C@H](c3ccccc3)[C@@H]3CCCN32)(c2ccccc2)c2ccc(OC)cc2)cc1` [L-DNA A], in series [1], the “Soluble after: 0 h MeCN + 2.5% pyridine” value is recorded as “Yes”, the “Soluble after: 24 h MeCN + 2.5% pyridine” value is recorded as “Yes” and the “Solubility after 24 hours … of pyridine” value is given as “solubility of the monomer is preserved; also recorded: kept in solution”. In series [1] (MeCN), the “Soluble after: 0 h MeCN” value is reported as “Yes”, the “Soluble after: 24 h MeCN” value is listed as “No” and the “Solubility after 24 hours in MeCN” value is given as “not soluble; also recorded: not sufficient to keep the monomer in solution”.

As to `COc1ccc(C(OC[C@H]2O[C@@H](n3ccc(NC(C)=O)nc3=O)C[C@@H]2O[P@@]2O[C@H](c3ccccc3)[C@@H]3CCCN32)(c2ccccc2)c2ccc(OC)cc2)cc1` [L-DNA C], in series [1], the “Soluble after: 0 h MeCN + 2.5% pyridine” value is recorded as “Yes” and the “Soluble after: 24 h MeCN + 2.5% pyridine” value was “Yes”. Moreover, in series [1] (MeCN), the “Soluble after: 0 h MeCN” value is recorded as “Yes” and the “Soluble after: 24 h MeCN” value is “No”.

Regarding `COc1ccc(C(OC[C@H]2O[C@@H](n3cnc4c(=O)[nH]c(/N=C/N(C)C)nc43)C[C@@H]2O[P@@]2O[C@H](c3ccccc3)[C@@H]3CCCN32)(c2ccccc2)c2ccc(OC)cc2)cc1` [L-DNA G], in series [1], the “Soluble after: 0 h MeCN + 2.5% pyridine” value is “Yes” and the “Soluble after: 24 h MeCN + 2.5% pyridine” value is “Yes”. In series [1] (MeCN), the “Soluble after: 0 h MeCN” value is “Yes” and the “Soluble after: 24 h MeCN” value is “No”.

In the case of `COc1ccc(C(OC[C@H]2O[C@@H](n3cc(C)c(=O)[nH]c3=O)C[C@@H]2O[P@@]2O[C@H](c3ccccc3)[C@@H]3CCCN32)(c2ccccc2)c2ccc(OC)cc2)cc1` [L-DNA T], in series [1], the “Soluble after: 0 h MeCN + 2.5% pyridine” value was “Yes” and the “Soluble after: 24 h MeCN + 2.5% pyridine” value is “Yes”. In series [1] (MeCN), the “Soluble after: 0 h MeCN” value was “Yes” and the “Soluble after: 24 h MeCN” value is “No”.

Consider `COc1ccc(C(OCC23COC(C(n4cnc5c(NC(=O)c6ccccc6)ncnc54)O2)C3OP2OC(c3ccccc3)C3CCCN32)(c2ccccc2)c2ccc(OC)cc2)cc1` [L-LNA A], for which the “Stability in MeCN with Et3N after 24 hours” value in series [2] (MeCN + Et3N approximately 5-10 eq, 24 hours) is recorded as “completely stable”. In addition, the “Stability in MeCN with Et3N after 48 hours” value in series [2] (MeCN + Et3N approximately 5-10 eq, 48 hours) is on record as “majority of the L-LNA A is preserved”. The “Stability in MeCN after 24 hours” value in series [2] (MeCN only, 24 hours, room temperature) was “most of the L-LNA A was degraded”. Also, the “Stability in MeCN after 48 hours” value in series [2] (MeCN only, 48 hours, room temperature) is reported as “completely degraded”.

Turning to `COc1ccc(C(OCC23COC(C(n4cnc5c(=O)[nH]c(N=CN(C)C)nc54)O2)C3OP2OC(c3ccccc3)C3CCCN32)(c2ccccc2)c2ccc(OC)cc2)cc1` [L-LNA G-DMF], in series [1], the “Soluble after: 0 h MeCN + 2.5% pyridine” value is “No” and the “Soluble after: 24 h MeCN + 2.5% pyridine” value was “No”. In series [1] (MeCN), the “Soluble after: 0 h MeCN” value is listed as “No” and the “Soluble after: 24 h MeCN” value is “No”. In series [1] (MeCN, MeCN:DCE, MeCN:Tol, MeCN:acetone, Dioxane, and THF), the “Solubility in most solvents” value is “unsoluble”. For the same compound, the “Solubility in remaining solvents” value in series [1] (MeCN:DCM, DMF, DMSO, NMP, DCM, DCE, and Toluene) is given as “soluble”. Besides, in series [1] (acetonitrile solvents), the “Solubility in acetonitrile solvents” value is “poorly soluble”. Moreover, the “Amidite left after 24 hours” value in series [2] (DCM (best solvent), 24 hours, room temperature) worked out at 10%. Besides, the “Stability in the solvents where the monomer is soluble” value in series [2] (MeCN:DCM, DMF, DMSO, NMP, DCM, DCE, and Toluene, 24 hours) was “tremendous instability”.

Regarding `COc1ccc(C(OC[C@@]23CO[C@@H]([C@H](n4cnc5c(=O)[nH]c(NC(=O)C(C)C)nc54)O2)[C@@H]3O[P@]2O[C@H](c3ccccc3)[C@@H]3CCCN32)(c2ccccc2)c2ccc(OC)cc2)cc1` [L-LNA-G-iBu], in series [1], the “Soluble after: 0 h MeCN + 2.5% pyridine” value is reported as “Yes” and the “Soluble after: 24 h MeCN + 2.5% pyridine” value is reported as “Yes”. Further, the “Soluble after: 0 h MeCN” value in series [1] (MeCN) was “Yes”. For the same compound, the “Solubility in all solvents investigated” value in series [1] (all solvents investigated (12 different)) was “soluble”.
